Assay results: PMC6149668, “In Silico Identification and In Vitro Evaluation of Natural Inhibitors of Leishmania major Pteridine Reductase I” (Molecules : A Journal of Synthetic Chemistry and Natural …, 2017)
Where two headings read alike, the source gives them in different places.

What was measured:
[1] = target: T1, recombinant LmPTR1 (Leishmania major pteridine reductase I) (Leishmania major, UniProt Q01782); assay: biochemical; details: for % Inhibition at c = 50 µM: inhibitor 50 µM
T1 construct: poly-His (N); made in house; host or cells: E. coli BL21 (DE3)
T1 sequence (Q01782 whole entry): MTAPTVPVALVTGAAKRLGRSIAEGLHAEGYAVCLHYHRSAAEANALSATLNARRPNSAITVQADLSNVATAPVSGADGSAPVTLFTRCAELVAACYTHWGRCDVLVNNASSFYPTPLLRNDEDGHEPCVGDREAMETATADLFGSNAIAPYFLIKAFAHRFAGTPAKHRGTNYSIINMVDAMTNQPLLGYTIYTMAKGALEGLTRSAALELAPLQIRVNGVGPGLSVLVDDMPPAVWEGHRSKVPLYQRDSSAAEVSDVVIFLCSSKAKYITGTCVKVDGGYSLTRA
Method: (§1) In order to assess the inhibitory activity of the compounds identified in silico, spectrophotometric inhibition assays were performed on recombinant LmPTR1, measuring the decreasing concentration of NADPH at 340 nm as a linear kinetic parameter for LmPTR1 activity at saturating concentrations of NADPH (co-substrate) and folic acid (substrate). First, each in silico hit was added to a concentration of 50 µM, and the resulting linear plots of absorbance vs. time were compared with those recorded in the absence of an inhibitor.
The determination of the inhibitory activity of the in silico hits was carried out by a UV-Vis spectrophotometric assay on recombinantly produced LmPTR1. In order to assess the catalytic activity of LmPTR1, the oxidation of NADPH to NADP^+ was followed with a Hitachi U-2900 UV-Vis spectrophotometer at 340 nm as a linear kinetic parameter. Reference measurements without the addition of inhibitors were used to determine the full catalytic activity (100% value), and subsequent measurements with inhibitory compounds were calculated accordingly. The total assay volume of 1 mL consisted of sodium phosphate buffer (50 mM NaH2PO4, 100 mM NaCl, pH 6), 250 µM NADPH, 35 µg LmPTR1, 22.5 µM folic acid, and varying inhibitor concentrations. The tested inhibitors were dissolved in DMSO (10 mM stock solutions), and appropriate volumes were added to the assays to obtain the desired assay concentrations in such a way that a DMSO concentration between 0.1–1% resulted. […] Initial tests were performed at an inhibitor concentration of 50 µM in triplicate.

[2] = Solubility under the LmPTR1 assay conditions; assay type: physicochemical; details: sodium phosphate buffer pH 6, DMSO 0.1–1%
Method: as §1, with “inhibitor. […] For 2,3-dehydrosilybin A (1), complete inhibition could not be achieved. The maximum of inhibition achieved with this compound was 64% at a concentration of 50 µM. […] Plots of the inhibitory activity as a function of concentration for compounds 1 to 6 are shown in the Supplementary Materials Figures S10–S15, and the resulting IC50 and EC50 values are reported in Table 1.” for “inhibitor.”
The determination of the inhibitory activity of the in silico hits was carried out by a UV-Vis spectrophotometric assay on recombinantly produced LmPTR1. […] Reference measurements without the addition of inhibitors were used to determine the full catalytic activity (100% value), and subsequent measurements with inhibitory compounds were calculated accordingly. […] No inhibition of LmPTR1 could be detected by DMSO itself at the mentioned concentrations. […]

[3] = pH 6, inhibitor 50 µM, 250 µM NADPH, 22.5 µM folic acid, pH 6, triplicate, n.i. = no inhibition at 50 µM, read-out: % Inhibition at c = 50 µM
[4] = in brackets: 95% confidence interval, n = 4 to 7 concentrations, non-linear regression, read-out: IC50
[5] = 250 µM NADPH, 22.5 µM folic acid, pH 6, triplicate, n.i. = no inhibition at 50 µM

Compound: COc1cc([C@@H]2Oc3cc([C@H]4Oc5cc(O)cc(O)c5C(=O)[C@@H]4O)ccc3O[C@H]2CO)ccc1O [silybin B]
- inhibition at 50 µM [1, 3]: 19%

Compound: COc1cc([C@@H]2Oc3ccc([C@H]4Oc5cc(O)cc(O)c5C(=O)[C@@H]4O)cc3O[C@H]2CO)ccc1O [isosilybin B]
- inhibition at 50 µM ([1]; pH 6, read-out: % Inhibition at c = 50 µM): 26%

Compound: O=c1c(O)c(-c2cc(O)c(O)c(O)c2)oc2cc(O)cc(O)c12 [myricetin]
- IC50 [1, 4]: 21 µM
- inhibition at 50 µM ([1]; pH 6, read-out: % Inhibition at c = 50 µM, inhibitor 50 µM, 250 µM NADPH, 22.5 µM folic acid, pH 6, triplicate, n.i. = no inhibition at 50 µM): > 50%

Compound: C=C(C)[C@H](CC=C(C)C)Cc1c(O)cc(O)c2c1O[C@H](c1ccc(O)cc1O)CC2=O [sophoraflavanone G]
- IC50 [1, 4]: 19.2 µM

Compound: icariside II
- % Inhibition at c = 50 µM [1, 5]: 35%

Compound: O=c1cc(-c2ccc(O)cc2)oc2cc(OC3OC(CO)C(O)C(O)C3O)cc(O)c12 (stereo not shown) [apigenin-7-glucoside]
- IC50 [1]: 43.5 µM
- inhibition at 50 µM [1, 3]: > 50%

Compound: CC(C)=CCc1c(O)cc2oc3cc(O)c(O)c(CCC(C)(C)O)c3c(=O)c2c1O [garcinone C]
- IC50 [1, 4]: 26.3 µM

Compound: COc1cc([C@H]2Oc3cc(-c4oc5cc(O)cc(O)c5c(=O)c4O)ccc3O[C@@H]2CO)ccc1O [2,3-dehydrosilybin A]
- EC50 [1]: 7.3 µM
- inhibition at 50 µM ([1]; at a concentration of 50 µM, concentration-effect curve, read-out: maximum of inhibition achieved): 64%
- inhibition at 50 µM [1, 3]: > 50%
- solubility under the assay conditions [2]: limited solubility

Compound: phillyrin
- % Inhibition at c = 50 µM [1, 5]: n.i.

Compound: O=C(/C=C/c1ccc(O)c(O)c1/C=C/c1ccc(O)c(O)c1)O[C@H](Cc1ccc(O)c(O)c1)C(=O)O [salvianolic acid A]
- IC50 [1]: 42.2 µM
- inhibition at 50 µM [1, 3]: > 50%

Compound: COc1ccc([C@H]2OC[C@H]3[C@@H]2CO[C@@H]3c2cc(OC)c(OC)c(OC)c2)cc1OC [magnolin]
- % Inhibition at c = 50 µM [1, 5]: n.i.

Compound: COc1cc(O)c(CC=C(C)C)c2c1C(=O)CC(c1ccc(O)cc1)O2 (stereo not shown) [isoxanthohumol]
- inhibition at 50 µM [1, 3]: 22%

Compound: COc1cc([C@@H]2Oc3c(O)cc([C@H]4Oc5cc(O)cc(O)c5C(=O)[C@@H]4O)cc3[C@H]2CO)ccc1O [silychristin]
- inhibition at 50 µM [1, 3]: 24%

Compound: COc1cc([C@H]2Oc3cc([C@H]4Oc5cc(O)cc(O)c5C(=O)[C@@H]4O)ccc3O[C@@H]2CO)ccc1O [silybin A]
- inhibition at 50 µM [1, 3]: 14%

Compound: O=C(/C=C/c1ccc(O)c(O)c1)O[C@H](Cc1ccc(O)c(O)c1)C(=O)O [rosmarinic acid]
- inhibition at 50 µM [1, 3]: 20%

Compound: O=C(O[C@@H]1Cc2c(O)cc(O)cc2O[C@@H]1c1ccc(O)c(O)c1)c1cc(O)c(O)c(O)c1 [(−)-epicatechin-3-gallate]
- inhibition at 50 µM [1, 3]: 24%
